“Also recorded” adds a separate entry of the source.
Columns and labels:
[1] = system: PC-3 (prostate adenocarcinoma); test: In vitro cytotoxic activity GI50, method (a), PC-3; format: cell-based; conditions: 96 hours incubation, propidium iodide
Experimental: (§1) Compounds were dissolved at 10 mM in DMSO. Dilution in vehicle to concentrations of 30, 10, 3, 1 and 0.3 μM were prepared immediately before assays. Depending on the cell line's growth characteristics, 4000-10000 cells were plated in two 96-wells pates (day 0) and incubated for 16 hours. The following day, propidium iodide was added to one of the two plates and fluorescence measured (Tz). Test compounds were added to the second plate, as well as vehicle control, and cells further incubated for 96 hours. Each compound was tested at each concentration and in triplicates. The equivalent cell number was determined after adding propidium iodide by measuring the signal by fluorescence (C for control).

SF268 (CNS) = test: In vitro cytotoxic activity GI50, method (a), SF-268; format: cell-based; conditions: Homo sapiens, 96 hours incubation, propidium iodide
Experimental: as §1

[2] = system: HT-29, SF268, MDA-MB-231 and PC-3 cell lines; test: In vitro cytotoxic activity, four cell lines together (average, comparison); format: cell-based; conditions: for anticancer activity compared with Compound 1: Table 12 cell lines
Experimental: as §1

[3] = system: HT-29 (colorectal carcinoma); test: In vitro cytotoxic activity GI50, method (a), HT-29; format: cell-based; conditions: Homo sapiens, 96 hours incubation, propidium iodide
Experimental: as §1

[4] = system: MDA-MB-231 (mammary gland adenocarcinoma); test: In vitro cytotoxic activity GI50, method (a), MDA-MB-231; format: cell-based; conditions: Homo sapiens, 96 hours incubation, propidium iodide
Experimental: as §1

[5] = for several days post-injection, ip and iv
in vivo = conditions: CD-1 nu/nu, mouse, iv
C6 glioblastoma [6] = test: In vivo efficacy in glioma model, second series (treatment from day 10); parameters: species or system Mus musculus nude mice
Text: The aim of this study was to test whether Compounds 1 and 2 prevent or delay tumor growth in C6 glioblastoma cell-bearing mice, and to determine an effective dosage regimen. […]
(§2) Tumor Cell Line: The C6 cell line was cloned from a rat glial tumor induced by N-nitrosomethyurea (NMU) according to Premont et al. (Premont J, Benda P, Jard S., [3H] norepinephrine binding by rat glial cells in culture. Lack of correlation between binding and adenylate cyclase activation. Biochim Biophys Acta. 1975 Feb. 13; 381(2):368-76.) after series of alternate culture and animal passages. […] The cells were counted in a hemocytometer and their viability assessed by 0.25% trypan blue exclusion. […]
In a second series of experiments, treatment started at day 10 following inoculation of C6 cells when tumors became palpable (around 100 to 200 mm^3). […] Tumor volume was measured every second day until the end of the treatment using callipers. […]

C6 glioblastoma [7] = test: In vivo efficacy in glioma model, first series (treatment 24 hrs after inoculation); parameters: species or system Mus musculus nude mice; conditions: all treated groups (10-30 mg/kg i.p.), Anova and Dunnett's test
Experimental: The aim of this study was to test whether Compounds 1 and 2 prevent or delay tumor growth in C6 glioblastoma cell-bearing mice, and to determine an effective dosage regimen.
Animal experiments were performed according to ethical guidelines of animal experimentation (Charte du comité d′éthique du CNRS, juillet 2003) and the English guidelines for the welfare of animals in experimental neoplasia (WORKMAN, P., […], P., BALKWILL, F., et al. (1998). United Kingdom Coordinating Committee on Cancer Research (UKCCCR) Guidelines for the welfare of animals in experimental neoplasia (Second Edition, July 1997; British Journal of Cancer, 77:1-10). Any dead or apparently sick mice were promptly removed and replaced with healthy mice. Sick mice were euthanized upon removal from the cage. […]
as §2

[8] = Pharmacokinetic profiles, plasma; format: in vivo, female Crl: CD1 mice; conditions: female, Crl: CD1, mouse, ip, 30 mg/kg
Experimental: Compounds 1 and 2 were separately dissolved in ethanol (5%), Polysorbate 80 (15%), PEG 400 (5%) and dextrose (5%) at a final concentration of 6 mg/ml (for all parenteral administration routes). For oral […], Compound 1 was solubilized in Cremophor® EL/Ethanol (50%:50%) at a final concentration of 6 mg/ml. Prior to dosing, animals (female Crl: CD1 mice; 6 weeks of age, 22-24 g) were weighed, randomly selected and assigned to the different treatment groups. Compound 1 was administered by the intravenous (iv), subcutaneous (sc), intraperitoneal (ip), or oral (po) route to the assigned animals. Compound 2 was administered by the intravenous (iv), or intraperitoneal (ip) route to the assigned animals. […] Samples were analysed by LC/MS/MS.
Plasma values of Compounds 1 and 2 falling below the limit of quantitation (LOQ) were set to zero.
The following pharmacokinetic parameters were calculated: area under the plasma concentration versus time curve from time zero to the last measurable concentration time point (AUC0-t), area under the plasma concentration versus time curve extrapolated to infinity (AUCinf), maximum observed plasma concentration (Cmax), time of maximum plasma concentration (tmax), apparent first-order terminal elimination rate constant (kel), apparent first-order terminal elimination half-life will be calculated as 0.693/kel (t1/2). […]

## CC(=O)Oc1cc(OC(C)=O)c2c(c1)N(C/C=C(\C)CC/C=C(\C)CCC=C(C)C)C(=O)c1cccc(OC(C)=O)c1N2 [Compound 25, 4,6,8-triacetoxy-10-farnesyl-5,10-dihydro-dibenzo[b,e][1,4]diazepin-11-one]
[1]
  GI50: 1.2 µM
SF268 (CNS)
  GI50: 1.95 µM
[2]
  anticancer activity compared with Compound 1: generally more active than Compound 1
[2]; average of four cell lines, method (a)
  GI50: 3.82 µM
[3]
  GI50: 9.33 µM
[4]
  GI50: 2.79 µM

## CC(C)=CCC/C(C)=C/CC/C(C)=C/CN1C(=O)c2cccc(O)c2N(C)c2c(O)cc(O)cc21 [Compound 2, 10-farnesyl-4,6,8-trihydroxy-5-methyl-5,10-dihydro-dibenzo[b,e][1,4]diazepin-11-one]
[5]
  weight losses: about 7%
In vivo
  MTD: ≥ 100 mg/kg

## CC(C)=CCC/C(C)=C/CC/C(C)=C/CN1C(=O)c2cccc(O)c2Nc2c(O)cc(O)cc21 [Compound 1, 10-farnesyl-4,6,8-trihydroxy-5,10-dihydrodibenzo[b,e][1,4]diazepin-11-one]
C6 glioblastoma [6]; 20-30 mg/kg, FIG. 3
  Histological analysis of tumor sections: cell density of tumor treated with Compound 1 appears decreased; also recorded: cell density was decreased and the nuclei of remaining tumor cells appeared larger and pycnotic
C6 glioblastoma [6]; all treated groups (20-30 mg/kg i.p.), Anova and Dunnett's test
  mean value of the tumor volume of treated groups vs saline group: significantly reduced
C6 glioblastoma [7]
  mean value of the tumor volume of treated groups vs saline group: significantly reduced
In vivo
  MTD: 150 mg/kg
[8]
  AUC: 9.5 µM·h

## CC(C)CCCC(C)CCCC(C)CCN1C(=O)c2cccc(O)c2Nc2c(O)cc(O)cc21 (stereo not drawn) [Compound 23, 10-(3,7,11-trimethyldodecyl)-4,6,8-trihydroxy-5,10-dihydro-dibenzo[b,e][1,4]diazepin-11-one]
[2]
  anticancer activity compared with Compound 1: generally more active than Compound 1

## CC(C)=CCC/C(C)=C/CC/C(C)=C/CN1C(=O)c2cccc(O)c2Nc2c1cc(O)c(Br)c2O [Compound 24, 10-(farnesyl)-7-bromo-4,6,8-trihydroxy-5,10-dihydro-dibenzo[b,e][1,4]diazepin-11-one]
[2]
  anticancer activity compared with Compound 1: generally more active than Compound 1

Reference: patent US20090029972A1, “Dibenzodiazepinone Analogues, Processes for Their Production and Their Use as Pharmaceuticals” (Ecopia BioSciences Inc, priority 2004, published 2009)
